Experimental data taken from patent publication US9987200B2, “Activated micro-bubble based root canal disinfection” (SyACT, LLP, priority 2014, dated 2018).

Assays:
[1] = system: Enterococcus faecalis biofilms; experiment: Confocal laser scanning microscopy of biofilms subjected to different treatments (FIG. 15); type: cell-based; conditions: one week old E. faecalis biofilms; live green, dead red; light 660 nm
Description: FIG. 15 contains in the first two columns, images showing the three-dimensional confocal laser scanning microscopy reconstruction of the Enterococcus faecalis biofilms subjected to different treatments (60×).
The first two columns of FIG. 15 contain images which show one week old bacterial biofilms of Enterococcus faecalis before and after treatment for the different groups. Each of the six images in the first two columns show active and dead bacteria, with the active bacteria being shown in green and the dead bacteria being shown in red. The two left-hand columns of FIG. 15 contains, images showing the three-dimensional confocal laser scanning microscopy reconstruction of the Enterococcus faecalis biofilms subjected to different treatments (60×). […] However, there active bacteria remain.

bacterial biofilms = experiment: Laser confocal microscopy of treated root canals, live/dead bacteria (FIGS. 20-22); type: cell-based; conditions: then sonic and light activation of the micro-bubble solution
Description: FIGS. 21-22 show laser confocal microscopy images showing bacterial biofilms (and dead cells as red and viable cells are green).
In these photographs, active bacteria are shown in green and dead bacteria as shown in red. FIG. 20 contains photomicrographs of a control tooth.

[2] = Singlet oxygen release measured with 1,3-diphenylisobenzofuran (DPBF); type: physicochemical; conditions: with sonic activation compared with no sonic activation (FIG. 11)
Method: As noted above, when the light reaches the photosensitive compound, the photosensitive compound releases energy to convert the oxygen molecules to singlet oxygen. […] The singlet oxygen release was measured using 1, 3-diphenylisobenzofuran (DPBF). DPBF is a chemical used to study the degree of release of singlet oxygen; it is not actually part of the micro-bubble solution or the photosensitizing solution. As is known, DPBF undergoes bleaching with singlet oxygen and this can be calorimetrically quantified. […]
FIG. 11 contains graphs showing singlet oxygen yield of methylene blue (on the left hand graph) and rose bengal (on the right hand graph) both with sonic activation (square data points) and without sonic activation (diamond data points). […] The substantial fall off in absorbance in the sonically activated samples (as compared to the non-activated samples) for both the methylene blue and the rose bengal show substantial increase in micro-bubble activity within the first few seconds of activation of the micro-bubble solution.

[3] = cited from earlier work

Compound: OCl [sodium hypochlorite]
- Active (live) bacteria remaining in biofilm [1]: kills (eliminates) nearly all of the active bacteria

Compound: CN(C)c1ccc2nc3ccc(=[N+](C)C)cc-3sc2c1 [methylene blue]
- Active bacteria remaining in root canal (bacterial biofilms; MB in a water carrier): substantially all of the active bacteria have been eliminated
- Active bacteria remaining in root canal (bacterial biofilms; MB in polyethylene glycol, alcohol and water carrier solution): substantially all of the active bacteria have been eliminated
- Fall off in absorbance (singlet oxygen yield) [2]: falls off much more rapidly

Compound: O=C([O-])c1c(Cl)c(Cl)c(Cl)c(Cl)c1-c1c2cc(I)c(=O)c(I)c-2oc2c(I)c([O-])c(I)cc12.[Na+].[Na+] [rose bengal]
- Fall off in absorbance (singlet oxygen yield) [2]: fell off much more quickly

Compound: Triton X-100
- Solubility ([3]; at 25° C. in water, benzene, toluene, xylene, trichloroethylene, ethylene glycol, ethyl ether, ethanol, isopropanol, ethylene dichloride): soluble in all proportions
- Viscosity (Brookfield) ([3]; at 25° C.): 240 cps
